Measurements from PubChem BioAssay (NCI).
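The compound was tested at five concentrations on cells cultured in 96-well plates, with a 48-hour exposure period. The concentration for 50% growth inhibition is given as GI50. TGI denotes the concentration required for complete inhibition of growth.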

Experiments:
Assay in all cases: growth of human tumour cells (NCI), 48 h
HOP-62 NSCLC = tested on: HOP-62 NSCLC
UO-31 renal = tested on: UO-31 renal
NCI-H460 lung = tested on: NCI-H460 lung
CCRF-CEM leukemia = tested on: CCRF-CEM leukemia
SR leukemia = tested on: SR leukemia
MDA-MB-231 breast = tested on: MDA-MB-231 breast
BT-549 breast = tested on: BT-549 breast
786-0 renal = tested on: 786-0 renal
SK-MEL-5 melanoma = tested on: SK-MEL-5 melanoma
U251 CNS = tested on: U251 CNS
KM12 colon = tested on: KM12 colon
COLO 205 colon = tested on: COLO 205 colon
UACC-257 melanoma = tested on: UACC-257 melanoma
SK-MEL-2 melanoma = tested on: SK-MEL-2 melanoma
HOP-92 NSCLC = tested on: HOP-92 NSCLC
NCI/ADR-RES ovarian = tested on: NCI/ADR-RES ovarian
NCI-H522 lung = tested on: NCI-H522 lung
HCC-2998 colon = tested on: HCC-2998 colon
RPMI-8226 leukemia = tested on: RPMI-8226 leukemia
SF-539 CNS = tested on: SF-539 CNS
MDA-MB-435 = tested on: MDA-MB-435
HCT-15 colon = tested on: HCT-15 colon
NCI-H23 lung = tested on: NCI-H23 lung
SK-MEL-28 melanoma = tested on: SK-MEL-28 melanoma
A549 NSCLC = tested on: A549 NSCLC
M14 melanoma = tested on: M14 melanoma
PC-3 prostate = tested on: PC-3 prostate
UACC-62 melanoma = tested on: UACC-62 melanoma
K-562 leukemia = tested on: K-562 leukemia
HL-60(TB) leukemia = tested on: HL-60(TB) leukemia
SN12C renal = tested on: SN12C renal
MALME-3M melanoma = tested on: MALME-3M melanoma
RXF 393 renal = tested on: RXF 393 renal
OVCAR-8 ovarian = tested on: OVCAR-8 ovarian
MOLT-4 leukemia = tested on: MOLT-4 leukemia
NCI-H226 lung = tested on: NCI-H226 lung
SW-620 colon = tested on: SW-620 colon
IGROV1 ovarian = tested on: IGROV1 ovarian
T-47D breast = tested on: T-47D breast
HT29 colon = tested on: HT29 colon
HS 578T breast = tested on: HS 578T breast
HCT-116 colon = tested on: HCT-116 colon
MCF7 breast = tested on: MCF7 breast
ACHN renal = tested on: ACHN renal
CAKI-1 renal = tested on: CAKI-1 renal
OVCAR-4 ovarian = tested on: OVCAR-4 ovarian
OVCAR-3 ovarian = tested on: OVCAR-3 ovarian
DU-145 prostate = tested on: DU-145 prostate
SF-268 CNS = tested on: SF-268 CNS
EKVX NSCLC = tested on: EKVX NSCLC
SNB-75 CNS = tested on: SNB-75 CNS
OVCAR-5 ovarian = tested on: OVCAR-5 ovarian
LOX IMVI melanoma = tested on: LOX IMVI melanoma
SF-295 CNS = tested on: SF-295 CNS
A498 renal = tested on: A498 renal

For `COc1cccc2c(=O)c3c(sc12)c(NCCN(C)C)nc1ccccc13`, the GI50 (HOP-62 NSCLC) was 1.2 µM, the TGI (HOP-62 NSCLC) was 2.66 µM and the GI50 (UO-31 renal) was 0.461 µM. The TGI (UO-31 renal) was 2 µM, the GI50 (NCI-H460 lung) was 1.34 µM and the TGI (NCI-H460 lung) was 2.88 µM. It also gave a GI50 (CCRF-CEM leukemia) of 1.34 µM, a TGI (CCRF-CEM leukemia) of 2.97 µM and a GI50 (SR leukemia) of 0.612 µM. The TGI (SR leukemia) was 2.45 µM, the GI50 (MDA-MB-231 breast) was 1.34 µM and the TGI (MDA-MB-231 breast) was 2.87 µM. It also gave a GI50 (BT-549 breast) of 2.31 µM, a TGI (BT-549 breast) of 10.1 µM and a GI50 (786-0 renal) of 1.65 µM. The TGI (786-0 renal) was 3.16 µM, the GI50 (SK-MEL-5 melanoma) was 1.71 µM and the TGI (SK-MEL-5 melanoma) was 3.17 µM. It also gave a GI50 (U251 CNS) of 1.29 µM, a TGI (U251 CNS) of 2.74 µM and a GI50 (KM12 colon) of 1.59 µM. For the same molecule, the TGI (KM12 colon) was 3.1 µM, the GI50 (COLO 205 colon) was 1.2 µM and the TGI (COLO 205 colon) was 2.86 µM. It also gave a GI50 (UACC-257 melanoma) of 1.72 µM, a TGI (UACC-257 melanoma) of 3.5 µM and a GI50 (SK-MEL-2 melanoma) of 1.84 µM. For the same molecule, the TGI (SK-MEL-2 melanoma) was 3.82 µM, the GI50 (HOP-92 NSCLC) was 1.03 µM and the TGI (HOP-92 NSCLC) was 3.53 µM. For the same molecule, the GI50 (NCI/ADR-RES ovarian) was 1.31 µM, the TGI (NCI/ADR-RES ovarian) was 3.03 µM and the GI50 (NCI-H522 lung) was 1.36 µM. The TGI (NCI-H522 lung) was 3.02 µM, the GI50 (HCC-2998 colon) was 1.47 µM and the TGI (HCC-2998 colon) was 3.02 µM. For the same molecule, the GI50 (RPMI-8226 leukemia) was 1.36 µM, the TGI (RPMI-8226 leukemia) was 3.17 µM and the GI50 (SF-539 CNS) was 1.61 µM. For the same molecule, the TGI (SF-539 CNS) was 3.01 µM, the GI50 (MDA-MB-435) was 1.71 µM and the TGI (MDA-MB-435) was 3.2 µM. The GI50 (HCT-15 colon) was 1.06 µM, the TGI (HCT-15 colon) was 2.41 µM and the GI50 (NCI-H23 lung) was 1.51 µM. For the same molecule, the TGI (NCI-H23 lung) was 3.16 µM, the GI50 (SK-MEL-28 melanoma) was 1.92 µM and the TGI (SK-MEL-28 melanoma) was 3.49 µM. The GI50 (A549 NSCLC) was 1.22 µM, the TGI (A549 NSCLC) was 2.8 µM and the GI50 (M14 melanoma) was 1.56 µM. It also gave a TGI (M14 melanoma) of 2.94 µM, a GI50 (PC-3 prostate) of 1.34 µM and a TGI (PC-3 prostate) of 3.03 µM. The GI50 (UACC-62 melanoma) was 1.72 µM, the TGI (UACC-62 melanoma) was 3.24 µM and the GI50 (K-562 leukemia) was 1.02 µM. It also gave a TGI (K-562 leukemia) of 2.8 µM, a GI50 (HL-60(TB) leukemia) of 1.64 µM and a TGI (HL-60(TB) leukemia) of 3.42 µM. The GI50 (SN12C renal) was 1.15 µM, the TGI (SN12C renal) was 2.58 µM and the GI50 (MALME-3M melanoma) was 1.83 µM. It also gave a TGI (MALME-3M melanoma) of 3.59 µM, a GI50 (RXF 393 renal) of 1.29 µM and a TGI (RXF 393 renal) of 2.65 µM. It also gave a GI50 (OVCAR-8 ovarian) of 1.26 µM, a TGI (OVCAR-8 ovarian) of 2.93 µM and a GI50 (MOLT-4 leukemia) of 0.398 µM. For the same molecule, the TGI (MOLT-4 leukemia) was 1.66 µM, the GI50 (NCI-H226 lung) was 1.75 µM and the TGI (NCI-H226 lung) was 4.03 µM. The GI50 (SW-620 colon) was 0.76 µM, the TGI (SW-620 colon) was 2.3 µM and the GI50 (IGROV1 ovarian) was 1.19 µM. It also gave a TGI (IGROV1 ovarian) of 2.7 µM, a GI50 (T-47D breast) of 1.65 µM and a TGI (T-47D breast) of 3.98 µM. It also gave a GI50 (HT29 colon) of 0.648 µM, a TGI (HT29 colon) of 2.12 µM and a GI50 (HS 578T breast) of 1.69 µM. It also gave a TGI (HS 578T breast) of 4.81 µM, a GI50 (HCT-116 colon) of 0.538 µM and a TGI (HCT-116 colon) of 1.85 µM. The GI50 (MCF7 breast) was 1.25 µM, the TGI (MCF7 breast) was 2.7 µM and the GI50 (ACHN renal) was 1 µM. It also gave a TGI (ACHN renal) of 2.22 µM, a GI50 (CAKI-1 renal) of 1.36 µM and a TGI (CAKI-1 renal) of 3.12 µM. It also gave a GI50 (OVCAR-4 ovarian) of 1.57 µM, a TGI (OVCAR-4 ovarian) of 3.68 µM and a GI50 (OVCAR-3 ovarian) of 1.61 µM. The TGI (OVCAR-3 ovarian) was 3.22 µM, the GI50 (DU-145 prostate) was 1.68 µM and the TGI (DU-145 prostate) was 3.17 µM. It also gave a GI50 (SF-268 CNS) of 1.6 µM, a TGI (SF-268 CNS) of 3.57 µM and a GI50 (EKVX NSCLC) of 1.51 µM. The TGI (EKVX NSCLC) was 2.99 µM, the GI50 (SNB-75 CNS) was 1.47 µM and the TGI (SNB-75 CNS) was 8.53 µM. The GI50 (OVCAR-5 ovarian) was 1.65 µM, the TGI (OVCAR-5 ovarian) was 3.3 µM and the GI50 (LOX IMVI melanoma) was 1.33 µM. The TGI (LOX IMVI melanoma) was 2.76 µM, the GI50 (SF-295 CNS) was 1.65 µM and the TGI (SF-295 CNS) was 3.42 µM. The GI50 (A498 renal) was 1.49 µM and the TGI (A498 renal) was 2.93 µM.
